# In patent US12138254B2, “Chronic nightly dosing of lasmiditan for migraine prevention” (Eli Lilly and Company, priority 2018, dated 2024):
# Like-named read-outs stand apart in the source and are kept apart here.
# Experiments:
# patients with migraine [1] = assay: Phase 3 studies SAMURAI and SPARTAN, lasmiditan vs placebo for acute treatment of migraine; assay type: in vivo, human
# Text: Prior clinical development studies of lasmiditan have employed acute on-demand treatment regimens to relieve migraine pain and symptoms and treat migraine. […] From this analysis, the authors concluded the primary and key secondary endpoints were met and safety outcomes were consistent across the two Phase 3 studies. Thus, acute on-demand use of lasmiditan provides effective treatment for a substantial population of migraine patients, however some patients may continue to have attacks and improved methods of treating and/or preventing these attacks represent an important therapeutic goal.
# The placebo-controlled Phase 3 studies SAMURAI (NCT02439320) and SPARTAN (NCT02605174) evaluated lasmiditan 50 mg [SPARTAN only], 100 mg and 200 mg. […] GLADIATOR (NCT02565186) is a prospective randomized open-label Phase 3 study to evaluate long-term intermittent use of lasmiditan (100 mg or 200 mg) for acute treatment of migraine. An interim analysis of the effects of lasmiditan on migraine disability assessed with the MIDAS scale in GLADIATOR is described below, and has provided surprising and unexpected evidence of persistent beneficial effects in migraine patients.
# [2] = Unbound plasma and brain levels of lasmiditan in rats from dural PPE studies; assay type: in vivo, Sprague-Dawley rats; details: rat; for concentration at 1 h / concentration at 24 h: male, Sprague-Dawley; for concentration at 1 h: 1 hr post-dose; for concentration at 24 h: 24 hrs post-dose
# Experimental: Lasmiditan-hemisuccinate is dissolved in sterile water. All doses of lasmiditan are reported as free base equivalent doses, accounting for the weight of the salt. Envigo Sprague-Dawley, Sprague-Dawley male rats (250-350 grams, n=4/group) are fasted overnight prior to dosing. The animals are orally gavaged (2 mL/kg dose volume) with test compound or vehicle one hour prior to stimulation time and returned to their cages with only water available. Approximately 50 minutes post-dosing, the rats are anesthetized with Nembutal (65 mg/kg, ip.) and implanted with stainless steel stimulating electrodes (Rhodes Medical Systems, Inc.) to a depth of 9.2 mm. from the dura. The femoral vein is exposed and fluorescein isothiocyanate-labeled bovine serum albumin (FITC-BSA) (20 mg/kg, iv.), is injected into the femoral vein 2 minutes prior to stimulation. The FITC-BSA functions as a marker for protein extravasation. The left trigeminal ganglion is stimulated for 5 minutes at a current intensity of 1.0 mA (5 Hz, 5 msec pulse duration) with a Model S48 Grass Instrument Stimulator with PSIU6 photoelectric isolation unit (Grass-Telefactor). Five minutes following stimulation, a blood sample is collected by cardiac puncture and the rats are sacrificed by exsanguination with 40 ml of saline. One milliliter of blood is collected and placed in a 1.5 ml EDTA coated tube (Fisher Cat. #540734) on ice. Plasma is separated via centrifugation at 10,000 rpm (941 g) for thirty minutes at 4° C. The top of the skull is removed to collect the brain and dural membranes. The brain and plasma samples are frozen at −80° C. until thawed for compound quantification. The membrane samples are removed from both hemispheres, rinsed with water, and spread flat on microscope slides. The slides are dried for 15 minutes on a slide warmer, then the tissues are cover-slipped with a 70% glycerol/water solution. A fluorescence microscope (Zeiss) equipped with a grating monochromator and a spectrophotometer is used to quantify the amount of FITC-BSA dye in each dural sample. The extravasation induced by electrical stimulation of the trigeminal ganglion is an ipsilateral effect (i.e. occurs only on the side of the dura in which the trigeminal ganglion was stimulated). This allows the other (unstimulated) half of the dura to be used as the control. The ratio of extravasation in the dura from the stimulated side versus the unstimulated side is calculated and reported as the extravasation ratio for each animal. The mean extravasation ratio and standard error of the mean (SEM) are calculated for each treatment group. Controls yield a ratio of approximately 1.8. In contrast, a compound which effectively prevents the extravasation in the dura from the stimulated side would have a ratio of approximately 1. The resulting data are analyzed with a one-way ANOVA followed by Dunnett's post hoc to determine statistical significance (p<0.05). Levels of compound in the plasma and brain samples for each animal are analyzed according to methods known to the skilled artisan. Evaluation of Compound Potency 24 or 48 Hours Following Oral Administration Envigo Sprague-Dawley, Sprague-Dawley male rats (250-350 grams, n=4/group) are fasted overnight prior to dosing for the duration p.o. study. The animals are orally gavaged with test compound or vehicle and returned to their cages with only water available; with food returned 1 hour later. Either 24 or 48 post-dose, the animals are anesthetized with Nembutal (65 mg/kg, ip.) and placed in a stereotaxic frame (David Kopf Instruments). The remainder of the protocol is identical to the method immediately above for Evaluation of Compound Potency 1 Hour Following Oral Administration. […] However, the unbound plasma and brain concentrations measured 24 hours following the administration of the 10 mg/kg dose, are not different from the exposures associated with the non-efficacious 0.1 mg/kg dose at one hour. […]
# [3] = Fraction unbound in plasma and brain (FUplasma, FUbrain)
# patients with migraine [4] = details: cited from earlier work; for pain freedom (primary) and MBS freedom (key secondary) at 2 hours vs placebo: Phase 3 trials, all doses (50, 100, 200 mg); for proportion of patients headache pain-free / proportion of patients most bothersome symptom (MBS)-free: lasmiditan 200 mg, 2 hours post-first dose, p<0.001
# [5] = brain, 10 mg/kg po, read-out: Unbound Brain Cone (mean ± SD; n = 4)
# [6] = plasma, 10 mg/kg po, read-out: Unbound Plasma Cone (mean ± SD; n = 4)
# [7] = 10 mg/kg po, 48 hrs post-dose, BQL = below quantitation level
smiles,measurement,setting,value
"CN1CCC(C(=O)c2cccc(NC(=O)c3c(F)cc(F)cc3F)n2)CC1 [Lasmiditan, 2,4,6-trifluoro-N-[6-(1-methyl-piperidin-4-ylcarbonyl)-pyridin-2-yl]-benzamide]",recurrence rates of migraine,"patients with migraine [1]; 50-mg to 200-mg dose range, 2-hour to 24-hour time frame after dosing",similarly low
same,"efficacy on 2-hour pain freedom, dose relation",patients with migraine [1]; completed single-attack Phase 3 studies,dose related
same,"TEAEs, 200 mg vs 100 mg",patients with migraine [1]; studies of lasmiditan for acute treatment of migraine,numerically more TEAEs
same,concentration at 1 h,"[2]; brain, 0.1 mg/kg po, read-out: Unbound Brain Cone (mean ± SD; n = 4)",2 ± 0.1 nM
same,concentration at 1 h,"[2]; brain, 1 mg/kg po, read-out: Unbound Brain Cone (mean ± SD; n = 4)",16.6 ± 3.6 nM
same,concentration at 1 h,[2]; [5],242 ± 95 nM
same,concentration at 24 h,[2]; [5],2.1 ± 0.9 nM
same,concentration at 1 h,"[2]; plasma, 0.1 mg/kg po, read-out: Unbound Plasma Cone (mean ± SD; n = 4)",6 ± 1.9 nM
same,concentration at 1 h,"[2]; plasma, 1 mg/kg po, read-out: Unbound Plasma Cone (mean ± SD; n = 4)",67 ± 19.8 nM
same,concentration at 1 h,[2]; [6],767 ± 254 nM
same,concentration at 24 h,[2]; [6],6.2 ± 2.5 nM
same,Unbound Brain Cone (mean ± SD; n = 4),[2]; [7],BQL
same,Unbound Plasma Cone (mean ± SD; n = 4),[2]; [7],BQL
same,FUbrain,[3]; brain,"FUbrain = 0.117,"
same,FUplasma,[3]; plasma,"FUplasma = 0.459,"
same,most frequently reported / most common TEAEs,"patients with migraine [4]; Phase 3 studies, b6: ≥2% and greater than placebo after the first dose","dizziness, paresthesia, somnolence, fatigue, and nausea"
same,severity of TEAEs,patients with migraine [4]; Phase 3 studies,mild or moderate
same,pain freedom (primary) and MBS freedom (key secondary) at 2 hours vs placebo,patients with migraine [4],statistically significant superiority over placebo
same,pain freedom (primary) and MBS freedom (key secondary) at 2 hours vs placebo,patients with migraine [4]; listed as lasmiditan,significantly higher rates
same,proportion of patients headache pain-free,"patients with migraine [4]; SAMURAI, placebo 15.3%",32.2%
same,proportion of patients most bothersome symptom (MBS)-free,"patients with migraine [4]; SAMURAI, placebo 29.5%",40.7%
same,proportion of patients headache pain-free,"patients with migraine [4]; SPARTAN, placebo 21.3%",38.8%
same,proportion of patients most bothersome symptom (MBS)-free,"patients with migraine [4]; SPARTAN, placebo 33.5%",48.7%
same,headache pain-free and MBS-free at 2 hours compared to placebo,"patients with migraine [4]; lasmiditan 100 mg, 50 mg dose groups",significance was also noted
